Results as given in PubChem BioAssay (NCI).
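Where inhibition never reached the appropriate level, the endpoint shown equals the highest concentration tested. Otherwise, values were interpolated linearly from a five-concentration, 48-hour dose response in 96-well plates. TGI: concentration producing complete growth inhibition.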

Key:
Assay in all cases: DTP human tumour cell line panel, 48 h
HOP-62 NSCLC = tested on: HOP-62 NSCLC
COLO 205 colon = tested on: COLO 205 colon
MDA-N = tested on: MDA-N
SR leukemia = tested on: SR leukemia
MDA-MB-231 breast = tested on: MDA-MB-231 breast
KM12 colon = tested on: KM12 colon
OVCAR-8 ovarian = tested on: OVCAR-8 ovarian
SF-539 CNS = tested on: SF-539 CNS
NCI/ADR-RES ovarian = tested on: NCI/ADR-RES ovarian
MALME-3M melanoma = tested on: MALME-3M melanoma
SW-620 colon = tested on: SW-620 colon
SNB-75 CNS = tested on: SNB-75 CNS
DU-145 prostate = tested on: DU-145 prostate
SK-MEL-28 melanoma = tested on: SK-MEL-28 melanoma
UACC-257 melanoma = tested on: UACC-257 melanoma
NCI-H522 lung = tested on: NCI-H522 lung
T-47D breast = tested on: T-47D breast
K-562 leukemia = tested on: K-562 leukemia
UO-31 renal = tested on: UO-31 renal
OVCAR-3 ovarian = tested on: OVCAR-3 ovarian
HCT-15 colon = tested on: HCT-15 colon
NCI-H226 lung = tested on: NCI-H226 lung
LOX IMVI melanoma = tested on: LOX IMVI melanoma
MOLT-4 leukemia = tested on: MOLT-4 leukemia
OVCAR-5 ovarian = tested on: OVCAR-5 ovarian
HCC-2998 colon = tested on: HCC-2998 colon
PC-3 prostate = tested on: PC-3 prostate
SK-OV-3 ovarian = tested on: SK-OV-3 ovarian
A498 renal = tested on: A498 renal
MCF7 breast = tested on: MCF7 breast
SK-MEL-5 melanoma = tested on: SK-MEL-5 melanoma
IGROV1 ovarian = tested on: IGROV1 ovarian
CCRF-CEM leukemia = tested on: CCRF-CEM leukemia
MDA-MB-435 = tested on: MDA-MB-435
RXF 393 renal = tested on: RXF 393 renal
OVCAR-4 ovarian = tested on: OVCAR-4 ovarian
SK-MEL-2 melanoma = tested on: SK-MEL-2 melanoma
ACHN renal = tested on: ACHN renal
EKVX NSCLC = tested on: EKVX NSCLC
NCI-H23 lung = tested on: NCI-H23 lung
A549 NSCLC = tested on: A549 NSCLC
UACC-62 melanoma = tested on: UACC-62 melanoma
U251 CNS = tested on: U251 CNS
SN12C renal = tested on: SN12C renal
HOP-92 NSCLC = tested on: HOP-92 NSCLC
NCI-H460 lung = tested on: NCI-H460 lung
SF-268 CNS = tested on: SF-268 CNS
SF-295 CNS = tested on: SF-295 CNS
CAKI-1 renal = tested on: CAKI-1 renal
HCT-116 colon = tested on: HCT-116 colon
SNB-19 CNS = tested on: SNB-19 CNS
HT29 colon = tested on: HT29 colon
786-0 renal = tested on: 786-0 renal
M14 melanoma = tested on: M14 melanoma

Measured: TGI

O=S(=O)(O)CCS
> 100 µM: HOP-62 NSCLC | COLO 205 colon | MDA-N | SR leukemia | MDA-MB-231 breast | KM12 colon | OVCAR-8 ovarian | SF-539 CNS | NCI/ADR-RES ovarian | MALME-3M melanoma | SW-620 colon | SNB-75 CNS | DU-145 prostate | SK-MEL-28 melanoma | UACC-257 melanoma | NCI-H522 lung | T-47D breast | K-562 leukemia | UO-31 renal | OVCAR-3 ovarian | HCT-15 colon | NCI-H226 lung | LOX IMVI melanoma | MOLT-4 leukemia | OVCAR-5 ovarian | HCC-2998 colon | PC-3 prostate | SK-OV-3 ovarian | A498 renal | MCF7 breast | SK-MEL-5 melanoma | IGROV1 ovarian | CCRF-CEM leukemia | MDA-MB-435 | RXF 393 renal | OVCAR-4 ovarian | SK-MEL-2 melanoma | ACHN renal | EKVX NSCLC | NCI-H23 lung | A549 NSCLC | UACC-62 melanoma | U251 CNS | SN12C renal | HOP-92 NSCLC | NCI-H460 lung | SF-268 CNS | SF-295 CNS | CAKI-1 renal | HCT-116 colon | SNB-19 CNS | HT29 colon | 786-0 renal | M14 melanoma
